From US9878007B2, “Syndecan peptides and polypeptides as inhibitors of vascular endothelial growth factor receptor-2 (VEGFR2) and very late antigen-4 (VLA-4)” (Wisconsin Alumni Research Foundation, priority 2015, dated 2018)

How the values were obtained:
VLA-4 = target: T1, VLA-4 (Homo sapiens, UniProt P05556+P13612); test: GST pull down assay: capture of VLA-4 by GST-S1ED; type: binding; settings: HPSE^low cell lysates; peptide 30 M [sic]
T1 construct: the α4-integrin (VLA-4), which is expressed on myeloma cells; endogenous in cells; host or cells: CAG human myeloma cells (HPSE^low), whole-cell lysate
T1 sequence (P13612 34-1032): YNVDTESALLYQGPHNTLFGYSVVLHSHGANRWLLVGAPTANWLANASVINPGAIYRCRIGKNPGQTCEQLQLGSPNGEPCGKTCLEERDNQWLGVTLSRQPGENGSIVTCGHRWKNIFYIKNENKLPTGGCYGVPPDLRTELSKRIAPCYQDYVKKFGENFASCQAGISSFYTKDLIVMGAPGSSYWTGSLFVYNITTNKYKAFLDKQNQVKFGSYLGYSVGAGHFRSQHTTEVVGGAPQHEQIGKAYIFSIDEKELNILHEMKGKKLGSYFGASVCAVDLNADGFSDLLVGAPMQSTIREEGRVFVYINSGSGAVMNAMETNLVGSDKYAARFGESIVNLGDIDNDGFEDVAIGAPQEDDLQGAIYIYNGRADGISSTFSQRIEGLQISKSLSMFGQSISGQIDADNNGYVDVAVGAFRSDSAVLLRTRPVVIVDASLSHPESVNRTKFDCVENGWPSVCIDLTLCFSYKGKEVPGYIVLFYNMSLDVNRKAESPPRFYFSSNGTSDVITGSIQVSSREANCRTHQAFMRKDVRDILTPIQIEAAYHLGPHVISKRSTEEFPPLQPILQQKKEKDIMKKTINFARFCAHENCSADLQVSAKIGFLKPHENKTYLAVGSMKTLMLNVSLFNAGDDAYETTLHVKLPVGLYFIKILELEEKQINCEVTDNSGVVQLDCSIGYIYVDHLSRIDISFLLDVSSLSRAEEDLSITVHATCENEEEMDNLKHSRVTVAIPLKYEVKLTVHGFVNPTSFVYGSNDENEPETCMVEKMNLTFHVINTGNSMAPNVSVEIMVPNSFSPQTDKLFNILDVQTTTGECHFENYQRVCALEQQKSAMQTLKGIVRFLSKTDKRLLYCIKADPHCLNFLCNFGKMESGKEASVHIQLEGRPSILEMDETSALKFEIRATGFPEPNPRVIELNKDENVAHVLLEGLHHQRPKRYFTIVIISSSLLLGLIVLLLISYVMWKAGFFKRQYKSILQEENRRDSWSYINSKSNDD
T1 sequence (P05556 21-798): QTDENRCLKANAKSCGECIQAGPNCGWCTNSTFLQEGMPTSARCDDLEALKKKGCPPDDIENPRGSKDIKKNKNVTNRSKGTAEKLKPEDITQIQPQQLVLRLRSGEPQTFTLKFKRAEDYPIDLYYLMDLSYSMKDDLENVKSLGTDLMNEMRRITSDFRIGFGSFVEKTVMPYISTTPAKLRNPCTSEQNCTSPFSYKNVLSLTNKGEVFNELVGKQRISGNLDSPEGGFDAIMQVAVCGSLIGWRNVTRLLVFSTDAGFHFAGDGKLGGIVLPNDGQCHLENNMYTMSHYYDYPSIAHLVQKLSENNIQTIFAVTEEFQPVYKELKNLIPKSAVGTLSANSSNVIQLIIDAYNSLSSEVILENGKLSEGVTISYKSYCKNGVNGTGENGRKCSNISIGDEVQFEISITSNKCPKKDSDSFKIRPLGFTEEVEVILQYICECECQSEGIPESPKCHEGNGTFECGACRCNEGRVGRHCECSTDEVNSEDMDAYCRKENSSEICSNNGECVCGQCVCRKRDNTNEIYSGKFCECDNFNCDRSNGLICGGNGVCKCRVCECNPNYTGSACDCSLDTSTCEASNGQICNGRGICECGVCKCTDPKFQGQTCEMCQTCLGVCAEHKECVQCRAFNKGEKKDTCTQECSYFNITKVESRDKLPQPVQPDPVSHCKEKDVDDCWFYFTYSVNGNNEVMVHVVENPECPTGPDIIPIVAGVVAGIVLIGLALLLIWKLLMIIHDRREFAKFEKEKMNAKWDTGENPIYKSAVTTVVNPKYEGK
Method: (§1) FIGS. 6A-G. Peptides derived from the active site in Sdc1 activate or inhibit adhesion and invasion. (FIG. 6A) Transwell migration assays towards FN (for 16 hrs) were performed for HPSE low or high cells in the presence of 0, 0.3, 3, and 30 μM of S1ED^210-240. Cells migrating to the bottom side of the filter were counted from five random images for each treatment. (FIG. 6B) The sequence of S1ED210-240 is shown (SEQ ID NO: 3), as well as […] truncation mutants of the peptide (SEQ ID NOs: 5, 2, 4 and 7). Amino acids shown in red appear necessary for the spreading and invasive activity. (FIG. 6C) Images of HPSE^low and HPSE^high cells plated on FN for 2 hr. (FIG. 6D) HPSE^low cells were treated with 0, 0.3, 3, 10 and 30 μM of S1ED^210-236, S1ED^210-233, or S1ED^214-240, plated on FN for 2 hr, fixed and stained with fluorescent phalloidin. Cells from five random images were quantified for cell attachment and cell spreading. (FIG. 6E) HPSE^high cells were treated with 0, 3, 10, and 30 μM of S1ED^210-236, S1ED^210-233, and S1ED^214-240, plated on FN for 2 hr, then fixed, imaged and quantified as in FIG. 6D. (FIG. 6F) Transwell migration assays towards FN (for 16 hr) were performed for HPSE^low or HPSE^high cells in the presence of 30 μM of S1ED^210-236, S1ED^210-233, S1ED^214-240 and Vandetanib. (FIG. 6G) HPSE^low cell lysates were incubated overnight with glutathione beads coated with GST or GST-S1ED in the absence or presence of 30 μM of S1ED^210-236, S1ED^210-233, and S1ED^214-240. Capture of VLA-4 or VEGFR2 was detected by immunoblotting. Sequences in FIG. 6B are 210-240 (SEQ ID NO: 3), 210-236 (SEQ ID NO: 2), 210-233 (SEQ ID NO: 4), 214-240 (SEQ ID NO: 5) and 214-236 (SEQ ID NO: 7).
(§2) CAG cells were washed with CMF-PBS and then lysed for 20 min on ice in lysis buffer. Cell debris was removed by centrifugation at 13000 rpm for 20 min at 4° C. Whole cell lysates were then incubated at 4° C. overnight with either 3 μM GST or 3 μM GST-S1ED in the absence or presence of 1 μM, 3 μM, and 10 μM S1ED^210-240 peptide. GST or GST-S1ED was captured by addition of glutathione Sepharose and the beads were washed with ice-cold lysis buffer and CMF-PBS, prior to addition of SDS-PAGE sample buffer and analyszed by electrophoresis and western blotting as described previously.

HMEC-1 cells [1] = test: In vitro tube formation assay of HMEC-1 cells on Matrigel; type: cell-based; settings: 24 hrs, 10 μM peptides
Method: (§3) FIGS. 8A-H. HPSE mediated the Sdc1-coupled VEGFR2 complex in endothelial cells induces angiogenesis. (FIG. 8A) Lysates from HPSE^low, HPSE^high and HMEC-1 cells are probed by immunoblotting for expression of HPSE. (FIG. 8B) HMEC-1 cells were seeded at equal density and grown in serum-free media for 24 hr in the absence or presence of 125 μg/ml of the HPSE inhibitor SST0001. After 24 hr, conditioned media were harvested, and the level of shed Sdc1 in the conditioned medium from each condition was determined by immunoblotting. (FIG. 8C) HMEC-1 cell lysate was incubated overnight with glutathione beads coated with GST or GST-S1ED. Capture of VLA-4 or VEGFR2 was detected by immunoblotting. (FIG. 8D) HMEC-1 cells were plated on IIICS for 3 hr and double stained for VLA-4 and Sdc1, VEGFR2 and Sdc1, or VLA-4 and VEGFR2. (FIG. 8E) HMEC-1 cells were treated with DMSO, VLA-4 blocking antibody P1H4, β1-integrin blocking antibody mAb13, 10 μg/ml MMP9 blocking antibody, 125 μg/ml HPSE inhibitor SST0001, Vandetanib, VEGFR2 blocking antibody, 30 μM S1ED^210-233 or 30 μM S1ED^214-240 and then plated on IIICS. Images were taken from random field with 200× magnification for counting attached and spread cells. (FIG. 8F) HMEC-1 cells were plated on IIICS in the presence of 10 μM of S1ED^210-236, S1ED^210-233, S1ED^215-240, and S1ED^214-240. Lysates were probed on immunoblots with antibodies against pY^1175 VEGFR2 and VEGFR2. (FIG. 8G) Transwell migration assays towards IIICS (for 16 hr) were performed for HMEC-1 cells in the presence of P1H4, SST0001, Anti-MMP9, Vandetanib, S1ED^210-236, S1ED^210-233, and S1ED^214-240. Images were taken from random field with 200× magnification for counting migrated cells. (FIG. 8H) A 96-well plate coated with 50 μl Matrigel containing 100 μg/ml IIICS per well was solidified at 37° C. for 2 hrs. HMEC-1 cells (2.5×10^4 cells/well) were seeded into the plate and cultured in media containing VEGF, SST0001, 10 μM of S1ED^210-236, S1ED^210-233, S1ED^215-240, and S1ED^214-240 for 24 hrs. Enclosed capillary networks of tubes were taken from random field with 200× magnification.

HMEC-1 cells [2] = test: Attachment and spreading of HMEC-1 cells on IIICS; type: cell-based; settings: plated on IIICS; 30 μM peptides, 125 μg/ml SST0001, 10 μg/ml MMP9 blocking antibody
Method: FIGS. 8A-H. HPSE mediated the Sdc1-coupled VEGFR2 complex in endothelial cells induces angiogenesis. (FIG. 8A) Lysates from HPSE^low, HPSE^high and HMEC-1 cells are probed by immunoblotting for expression of HPSE. (FIG. 8B) HMEC-1 cells were seeded at equal density and grown in serum-free media for 24 hr in the absence or presence of 125 μg/ml of the HPSE inhibitor SST0001. After 24 hr, conditioned media were harvested, and the level of shed Sdc1 in the conditioned medium from each condition was determined by immunoblotting. (FIG. 8C) HMEC-1 cell lysate was incubated overnight with glutathione beads coated with GST or GST-S1ED. Capture of VLA-4 or VEGFR2 was detected by immunoblotting. (FIG. 8D) HMEC-1 cells were plated on IIICS for 3 hr and double stained for VLA-4 and Sdc1, VEGFR2 and Sdc1, or VLA-4 and VEGFR2. (FIG. 8E) HMEC-1 cells were treated with DMSO, VLA-4 blocking antibody P1H4, β1-integrin blocking antibody mAb13, 10 μg/ml MMP9 blocking antibody, 125 μg/ml HPSE inhibitor SST0001, Vandetanib, VEGFR2 blocking antibody, 30 μM S1ED^210-233 or 30 μM S1ED^214-240 and then plated on IIICS. Images were taken from random field with 200× magnification for counting attached and spread cells. (FIG. 8F) HMEC-1 cells were plated on IIICS in the presence of 10 μM of S1ED^210-236, S1ED^210-233, S1ED^215-240, and S1ED^214-240. […]

VEGFR2 = target: T2, VEGFR2 (Homo sapiens, UniProt P35968); test: GST pull down assay: capture of VEGFR2 by GST-S1ED; type: binding; settings: HPSE^low cell lysates; peptide 30 M [sic]
T2 construct: endogenous in cells; host or cells: CAG human myeloma cells (HPSE^low = empty vector; HPSE^high = human HPSE cDNA)
T2 sequence (P35968 20-1356): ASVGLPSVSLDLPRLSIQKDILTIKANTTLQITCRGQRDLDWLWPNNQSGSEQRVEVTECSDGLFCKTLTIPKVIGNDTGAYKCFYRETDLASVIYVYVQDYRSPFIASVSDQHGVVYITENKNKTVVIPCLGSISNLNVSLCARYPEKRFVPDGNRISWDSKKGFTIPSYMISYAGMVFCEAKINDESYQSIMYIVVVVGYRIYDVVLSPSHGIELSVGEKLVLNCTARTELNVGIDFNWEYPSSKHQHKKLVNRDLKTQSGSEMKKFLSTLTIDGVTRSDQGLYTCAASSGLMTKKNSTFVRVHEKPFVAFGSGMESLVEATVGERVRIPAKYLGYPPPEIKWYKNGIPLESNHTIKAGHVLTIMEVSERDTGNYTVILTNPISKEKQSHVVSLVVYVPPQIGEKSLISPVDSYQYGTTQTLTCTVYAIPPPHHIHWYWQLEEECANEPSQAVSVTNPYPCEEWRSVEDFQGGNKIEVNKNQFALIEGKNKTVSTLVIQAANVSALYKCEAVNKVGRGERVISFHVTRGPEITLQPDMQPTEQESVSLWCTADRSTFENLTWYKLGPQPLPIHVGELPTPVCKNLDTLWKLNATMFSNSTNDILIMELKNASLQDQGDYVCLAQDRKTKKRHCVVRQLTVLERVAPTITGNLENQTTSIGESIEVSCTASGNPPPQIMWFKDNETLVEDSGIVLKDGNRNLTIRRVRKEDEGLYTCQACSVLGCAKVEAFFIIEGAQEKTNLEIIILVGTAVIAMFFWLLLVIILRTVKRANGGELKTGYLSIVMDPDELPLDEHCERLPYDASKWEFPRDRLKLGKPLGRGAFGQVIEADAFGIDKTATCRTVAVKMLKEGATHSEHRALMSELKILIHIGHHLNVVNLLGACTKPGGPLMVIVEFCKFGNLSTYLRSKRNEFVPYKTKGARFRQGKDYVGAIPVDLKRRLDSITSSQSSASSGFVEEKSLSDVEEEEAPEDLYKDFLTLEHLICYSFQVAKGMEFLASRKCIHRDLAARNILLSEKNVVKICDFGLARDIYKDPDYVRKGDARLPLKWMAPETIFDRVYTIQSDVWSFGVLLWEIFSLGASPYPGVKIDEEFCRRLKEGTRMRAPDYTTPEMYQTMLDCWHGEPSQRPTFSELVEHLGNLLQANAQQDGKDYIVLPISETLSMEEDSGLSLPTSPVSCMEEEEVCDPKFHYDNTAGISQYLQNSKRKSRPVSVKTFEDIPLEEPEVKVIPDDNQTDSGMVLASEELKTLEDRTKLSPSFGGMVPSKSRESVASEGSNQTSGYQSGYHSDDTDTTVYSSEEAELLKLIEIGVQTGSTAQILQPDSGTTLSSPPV
Method: as §1, §2

CAG myeloma cells [3] = test: Cell spreading / attachment assay of CAG myeloma cells on FN or VCAM-1; type: cell-based, human
HMEC-1 cells [4] = test: Transwell migration / invasion assay of HMEC-1 cells; type: cell-based; settings: 16 hr
Method: as §3, with “HMEC-1 cells (2.5×10^4 cells/well) were seeded into the plate and cultured in media containing VEGF, SST0001, 10 μM of S1ED^210-236, S1ED^210-233, S1ED^215-240, and S1ED^214-240 for 24 hrs. Enclosed capillary networks of tubes were taken from random field with 200× magnification.” left out
The bottom chambers of Transwell filter chambers (8 μm pores; Corning) were coated with 40 μg/ml of FN. […] Cells from at least five random fields were counted.

CAG myeloma cells [5] = test: Cell spreading / attachment assay of CAG myeloma cells on FN or VCAM-1; type: cell-based, human; remark: listed apart in the source
Method: (§4) Nitrocellulose-coated slides were coated for 2 hr at 37° C. with 40 μg/ml FN (kindly provided by Dr. Donna Peters, University of Wisconsin-Madison) or 5 μg/ml recombinant VCAM-1/Fc chimera (R&D Systems) in calcium and magnesium-free PBS (CMF-PBS; 135 mM NaCl, 2.7 mM KCl, 10.2 mM Na2HPO4-7H20 and 1.75 mM KH2PO4, pH7.4). Slides were blocked for 1 hr at 37° C. with RPMI 1640 containing 1% heat-denatured BSA (plating medium). Cells in plating medium were allowed to attach and spread for 2.5 hr at 37° C. Slides were fixed in 4% EM grade paraformaldehyde (Electron Microscopy Sciences) in CMF-PBS and labeled for 30 min in 0.13 μM rhodamine phalloidin (Invitrogen) in CMF-PBS. Coverslips were mounted in non-fluorescing mounting medium (Immumount; Thermo Shandon) and allowed to dry. All images were acquired with a Nikon Microphot FX microscope using a 20× objective (Nikon; Ex 541-551, DM 580, Barrier 590), Photometric CoolSnap ES camera, and version 7.7.3.0 Metamorph© Imaging software (Molecular Devices). All images represent results from triplicate wells and at least three independent experiments.

[6] = tested on: P3x63Ag8 mouse myeloma cells; test: Invasion of P3x63Ag8 myeloma cells through FN-coated filters; type: cell-based; settings: 16 hr
Method: (§5) FIG. 7A-B. S1ED^214-236, specific for VEGFR2 coupling to VLA-4, blocks myeloma cell invasion but not adhesion. (FIG. 7A) P3x63Ag8 mouse myeloma cells are plating on the VLA-4 ligand FN in the presence or absence of 30 uM S1ED^210-233 (SEQ ID No: 4) or S1ED^214-236 (SEQ ID No: 7) for 2.5 hr. (FIG. 7B) P3x63Ag8 myeloma cells are plated on FN-coated filters in the presence of HPSE inhibitor OGT2115, VLA-4 blocking antibody P1H4, VEGFR2 inhibitor Vandetanib or S1ED^210-233 or S1ED^214-236 and allowed to migrate through the filter for 16 hr. Small black dots are the pores in the filter.
The bottom chambers of Transwell filter chambers (8 μm pores; Corning) were coated with 40 μg/ml of FN. Cells (5×10^5 in 0.2 ml plating medium) were placed in the upper chamber and incubated for 16 hr at 37° C. in the CO2 incubator. After incubation, cells in the upper chamber were removed and cells on the bottom side of the filter were fixed in 4% paraformaldehyde (PFA) and stained with 0.1% Crystal Violet before imaging. Cells from at least five random fields were counted.

[7] = tested on: P3x63Ag8 mouse myeloma cells; test: Adhesion of P3x63Ag8 myeloma cells to FN; type: cell-based; settings: 30 uM peptide, 2.5 hr
Method: as §5
as §4, with “All images were acquired with a Nikon Microphot FX microscope using a 20× objective (Nikon; Ex 541-551, DM 580, Barrier 590), Photometric CoolSnap ES camera, and version 7.7.3.0 Metamorph© Imaging software (Molecular Devices). All images represent results from triplicate wells and at least three independent experiments.” left out

[8] = on FN, 2 hr, 0, 3, 10 and 30 μM peptide

S1ED^214-240: syndecan-1 ectodomain peptide, residues 214-240 (SEQ ID NO: 5) (ETSGENTAVVAVEPDRRNQSPVDQGAT)
competition for capture of VLA-4 by GST-S1ED (VLA-4): only competes for capture of VEGFR2
tube formation by HMEC-1 cells (HMEC-1 cells [1]): blocks tube formation
VLA-4 dependent spreading of HMEC-1 cells (HMEC-1 cells [2]): prevented
competition for capture of VEGFR2 by GST-S1ED (VEGFR2): only competes for capture of VEGFR2
HPSE^low cell spreading (CAG myeloma cells [3]; on FN, 2 hr, 0, 0.3, 3, 10 and 30 μM peptide): does not cause cell spreading
HPSE^high cell adhesion (CAG myeloma cells [3]; [8]): has no effect on cell adhesion
HPSE^high cell spreading (CAG myeloma cells [3]; [8]): blocks the spreading of HPSE^high cells
HPSE^low cell adhesion (CAG myeloma cells [3]; on FN, 2 hr, high concentrations (30 μM)): does not cause cell spreading or block adhesion
invasion of HMEC-1 cells (HMEC-1 cells [4]): all block invasion
induction of HPSE^low cell spreading by S1ED peptides (CAG myeloma cells [5]; on VCAM-1, 0.3 μM peptide): do not

O=C(O)Cc1ccc2oc(-c3ccc(NC(=O)/C=C/c4ccc(Br)cc4)c(F)c3)nc2c1 [OGT2115, reference compound]
invasion / migration of P3X cells through FN-coated filters [6]: Cell migration is only observed in the untreated controls

S1ED^214-236: syndecan-1 ectodomain peptide, residues 214-236 (SEQ ID NO: 7) (ETSGENTAVVAVEPDRRNQSPVD)
adhesion of P3X cells to FN [7]: without effect
invasion / migration of P3X cells through FN-coated filters [6]: blocked by either peptide

VEGF [reference compound]
tube formation by HMEC-1 cells (HMEC-1 cells [1]): not enhanced by VEGF
induction of HPSE^low cell spreading by VEGF (CAG myeloma cells [3]; 20 ng/ml VEGF): failed to induce spreading of the cells

B1: HPIII: heparinase III, a bacterial enzyme that completely degrades the HS (protein, UniProt Q59289 25-659, looked up)
Heparin-sulfate lyase: QSSSITRKDFDHINLEYSGLEKVNKAVAAGNYDDAAKALLAYYREKSKAREPDFSNAEKPADIRQPIDKVTREMADKALVHQFQPHKGYGYFDYGKDINWQMWPVKDNEVRWQLHRVKWWQAMALVYHATGDEKYAREWVYQYSDWARKNPLGLSQDNDKFVWRPLEVSDRVQSLPPTFSLFVNSPAFTPAFLMEFLNSYHQQADYLSTHYAEQGNHRLFEAQRNLFAGVSFPEFKDSPRWRQTGISVLNTEIKKQVYADGMQFELSPIYHVAAIDIFLKAYGSAKRVNLEKEFPQSYVQTVENMIMALISISLPDYNTPMFGDSWITDKNFRMAQFASWARVFPANQAIKYFATDGKQGKAPNFLSKALSNAGFYTFRSGWDKNATVMVLKASPPGEFHAQPDNGTFELFIKGRNFTPDAGVFVYSGDEAIMKLRNWYRQTRIHSTLTLDNQNMVITKARQNKWETGNNLDVLTYTNPSYPNLDHQRSVLFINKKYFLVIDRAIGEATGNLGVHWQLKEDSNPVFDKTKNRVYTTYRDGNNLMIQSLNADRTSLNEEEGKVSYVYNKELKRPAFVFEKPKKNAGTQNFVSIVYPYDGQKAPEISIRENKGNDFEKGKLNLTLTINGKQQLVLVP
induction of HPSE^low cell spreading (CAG myeloma cells [5]; heparinase III pre-treatment before plating on FN and VCAM-1): induces spreading of HPSE^low cells comparable to that observed for HPSE^high cells
